Holding throughout (assay type): functional, cell-based
For one test, the system named is THP-1. Put plainly: Inhibition of LPS-induced Tumor necrosis factor-alpha production (TNF-alpha) in THP-1 cells. The following applies: Homo sapiens.
Test [1] in a line: Compound was tested for the inhibition of production of IL-1 beta in human monocytes.
Test [2] is described as follows: Compound was tested for the inhibition of production of IL-6 in human monocytes.

Data on 12 compounds can be found in ChEMBL document CHEMBL1130806, “Enhanced potency of perfluorinated thalidomide derivatives for inhibition of LPS-induced tumor necrosis factor-alpha production is associated with a change of mechanism of action” (Bioorg Med Chem Lett, 1998).

What is called IC50 is the concentration that gives 50% inhibition. A high value points to a need for much substance. `C[C@@H](c1ccccc1)N1C(=O)c2c(F)c(F)c(F)c(F)c2C1=O` registered an IC50 in the test with THP-1 of 367 nM.

Turning to `O=C1c2c(F)c(F)c(F)c(F)c2C(=O)N1c1ccccc1`, the IC50 in the test with THP-1 was 425 nM. Same read-out and setting: as for `C[C@]1(N2C(=O)c3c(F)c(F)c(F)c(F)c3C2=O)CCC(=O)NC1=O`, the figure is 443 nM. In the case of `O=C1CCC(N2C(=O)c3c(F)c(F)c(F)c(F)c3C2=O)C(=O)N1` (stereo unspecified), the values for the IC50 (in test [1]; in the test with THP-1; in test [2]) were 400 nM, 490 nM and 700 nM, respectively.

Turning to `COC(=O)C[C@@H](c1ccc(OC)c(OC)c1)N1C(=O)c2c(F)c(F)c(F)c(F)c2C1=O`, in the test on THP-1, inhibition was half-maximal at 313 nM (IC50). Regarding `COC(=O)CC(c1ccc(OC)c(OC)c1)N1C(=O)c2c(F)c(F)c(F)c(F)c2C1=O` (racemic), the IC50 in test [1] came out at 400 nM; in the test with THP-1 it was 249 nM; in test [2], 300 nM.

Compound `CC(c1ccccc1)N1C(=O)c2c(F)c(F)c(F)c(F)c2C1=O` (racemic) had an IC50 with THP-1 of 415 nM. The same measure, in the same setting: as for `C[C@H](c1ccccc1)N1C(=O)c2c(F)c(F)c(F)c(F)c2C1=O`, the figure is 434 nM; as for `COC(=O)C[C@H](c1ccc(OC)c(OC)c1)N1C(=O)c2c(F)c(F)c(F)c(F)c2C1=O`, 250 nM; as for `C[C@@]1(N2C(=O)c3c(F)c(F)c(F)c(F)c3C2=O)CCC(=O)NC1=O`, 494 nM. Turning to `CC1(N2C(=O)c3c(F)c(F)c(F)c(F)c3C2=O)CCC(=O)NC1=O` (racemic), 378 nM corresponded to half-maximal inhibition in the test with THP-1 (IC50). The compound `CN1C(=O)c2c(F)c(F)c(F)c(F)c2C1=O` yielded an IC50 in the test on THP-1 of 413 nM.
